One assay deals with T1, SMYD2 (Homo sapiens, UniProt Q9NRG4).
T1 construct: Full length SMYD2 (NP_064582.2) was cloned; His6 (N, cleaved yes); FLAG (N); made in house; host or cells: Sf9 insect cells
T1 sequence (Q9NRG4 whole entry): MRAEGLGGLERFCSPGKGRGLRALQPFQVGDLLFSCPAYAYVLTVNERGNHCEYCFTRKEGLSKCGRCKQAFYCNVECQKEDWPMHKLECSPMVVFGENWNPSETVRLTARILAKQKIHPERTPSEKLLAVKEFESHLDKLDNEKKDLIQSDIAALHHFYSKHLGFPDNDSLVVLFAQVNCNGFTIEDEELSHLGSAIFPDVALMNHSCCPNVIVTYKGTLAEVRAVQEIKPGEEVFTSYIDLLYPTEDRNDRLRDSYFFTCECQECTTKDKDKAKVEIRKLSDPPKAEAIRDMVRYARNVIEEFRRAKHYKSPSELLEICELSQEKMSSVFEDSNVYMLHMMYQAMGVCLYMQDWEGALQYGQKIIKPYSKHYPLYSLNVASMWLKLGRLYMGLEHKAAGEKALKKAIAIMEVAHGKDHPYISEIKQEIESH
In words: SMYD2 biochemical assay (3H-SAM, biotinylated peptide substrate, Flashplate). Particulars: Table 1; average of n = 1 to n = 50; read-out: SMYD2 Biochem IC50. An excerpt:
S-adenosylmethionine (SAM), S-adenosylhomocysteine (SAH), bicine, Tween20, dimethylsulfoxide (DMSO), bovine skin gelatin (BSG), and Tris(2-carboxyethyl)phosphine hydrochloride (TCEP) were purchased from Sigma-Aldrich at the highest level of purity possible. ^3H-SAM was purchase from American Radiolabeled Chemicals with a specific activity of 80 Ci/mmol. 384-well streptavidin Flashplates were purchased from PerkinElmer.
Peptide was synthesized with a N-terminal linker-affinity tag motif and a C-terminal amide cap by 21st Century Biochemicals. The peptide was high high-performance liquid chromatography (HPLC) purified to greater than 95% purity and confirmed by liquid chromatography mass spectrometry (LC-MS). The sequence was […](K-Biot)-amide. (SEQ ID NO: 3)
Full length SMYD2 (NP_064582.2) was cloned into a pFastbac-Htb-lic vector with an N-terminal His6 tag and FLAG tag, preceded by a TEV protease cleavage site. The protein was expressed in Sf9 insect cells. Cells were resuspended in lysis buffer (25 mM HEPES-NaOH, pH 7.5, 200 mM NaCl, 5% glycerol, and 5 mM […] and lysed by sonication. The protein was purified by Ni-NTA (Qiagen), followed by TEV cleavage to remove the His6 tag, subtractive Ni-NTA (Qiagen), and gel filtration chromatography using an S200 column (GE Healthcare). Purified protein was stored in 20 mM Tris-HCl, pH 8.0, 100 mM NaCl, and 1 mM TCEP.
General Procedure for SMYD2 Enzyme Assays on Peptide Substrates
The assays were all performed in a buffer consisting of 20 mM Bicine (pH=7.6), 1 mM TCEP, 0.005% Bovine Skin Gelatin, and 0.002% Tween20, prepared on the day of use. Compounds in 100% DMSO (1 ul) were spotted into a polypropylene 384-well V-bottom plates (Greiner) using a Platemate Plus outfitted with a 384-channel head (Thermo Scientific). DMSO (1 ul) was added to Columns 11, 12, 23, 24, rows A-H for the maximum signal control and 1 ul of SAH, a known product and inhibitor of SMYD2, was added to columns 11, 12, 23, 24, rows I-P for the minimum signal control. A cocktail (40 ul) containing the SMYD2 enzyme was added by Multidrop Combi (Thermo-Fisher). The compounds were allowed to incubate with SMYD2 for 30 min at room temperature, then a cocktail (10 ul) containing ^3H-SAM and peptide was added to initiate the reaction (final volume=51 ul). The final concentrations of the components were as follows: SMYD2 was 1.5 nM, ^3H-SAM was 10 nM, and peptide was 60 nM, SAH in the minimum signal control wells was 1000 uM, and the DMSO concentration was 2%. The assays were stopped by the addition of non-radioactive SAM (10 ul) to a final concentration of 600 uM, which dilutes the ^3H-SAM to a level where its incorporation into the peptide substrate is no longer detectable. 50 ul of the reaction in the 384-well polypropylene plate was then transferred to a 384-well Flashplate and the biotinylated peptides were allowed to bind to the streptavidin surface for at least 1 hour before being washed three times with 0.1% Tween20 in a Biotek ELx405 plate washer. The plates were then read in a PerkinElmer TopCount plate reader to measure the quantity of ^3H-labeled peptide bound to the Flashplate surface, measured as disintegrations per minute (dpm) or alternatively, referred to as counts per minute (cpm).
Where dpm=disintegrations per minute, cmpd=signal in assay well, and min and max are the respective minimum and maximum signal controls.
Where top and bottom are the normally allowed to float, but may be fixed at 100 or 0 respectively in a 3-parameter fit. The Hill Coefficient normally allowed to float but may also be fixed at 1 in a 3-parameter fit. I is the compound concentration.
SMYD2 biochemical assay data for representative Compounds of the Disclosure are presented in Tables 1, 3, and 4 in the column titled “SMYD2 Bicohem IC50 (μM).”
What is called IC50 is the concentration at which inhibition is half-maximal. Consider `C[C@H]1CN(C2CC2)C[C@@H]1NC(=O)c1ccc2c(c1)CC(=O)N2` (racemic) [Cpd. No. 5, (±)-trans-N-(1-cyclopropyl-4-methylpyrrolidin-3-yl)-2-oxoindoline-5-carboxamide], for which the IC50 was over 50 µM.
Still for that read-out and setting: with `C[C@H]1CN(C2CC2)C[C@H]1NC(=O)c1ccc2c(c1)CC(=O)N2` (racemic) [Cpd. No. 6, (±)-cis-N-(1-cyclopropyl-4-methylpyrrolidin-3-yl)-2-oxoindoline-5-carboxamide] the figure was over 50 µM.
As to `C[C@H]1CN(C2CC2)C[C@@H]1NC(=O)c1ccc2c(c1)OC(F)(F)O2` (racemic) [compound 1, (±)-trans-N-(1-cyclopropyl-4-methylpyrrolidin-3-yl)-2,2-difluorobenzo[d][1,3]dioxole-5-carboxamide], the IC50 was over 50 µM.
Still for that read-out and setting: with `C[C@@H]1CN(C2CC2)C[C@@H]1NC(=O)c1ccc2c(c1)OC(F)(F)O2` (racemic) [compound 2, (±)-cis-N-(1-cyclopropyl-4-methylpyrrolidin-3-yl)-2,2-difluorobenzo[d][1,3]dioxole-5-carboxamide] the figure was over 50 µM; with `C[C@H]1CN(C2CC2)C[C@@H]1NC(=O)Cc1ccc2c(c1)NC(=O)CO2` (racemic) [compound 3, (±)-trans-N-(1-cyclopropyl-4-methylpyrrolidin-3-yl)-2-(3-oxo-3,4-dihydro-2H-benzo[b][1,4]oxazin-6-yl)acetamide], over 50 µM.
Same read-out and setting: with `C[C@H]1CN(C2CC2)C[C@H]1NC(=O)Cc1ccc2c(c1)NC(=O)CO2` (racemic) [compound 4, (±)-cis-N-(1-cyclopropyl-4-methylpyrrolidin-3-yl)-2-(3-oxo-3,4-dihydro-2H-benzo[b][1,4]oxazin-6-yl)acetamide] the figure was over 50 µM; with `CC1Oc2ccc(C(=O)N[C@H]3CN(C4CC4)C[C@@H]3C)cc2NC1=O` (mixture of isomers) [compound 7, (±)-trans-N-(1-cyclopropyl-4-methylpyrrolidin-3-yl)-2-methyl-3-oxo-3,4-dihydro-2H-benzo[b][1,4]oxazine-6-carboxamide], over 50 µM; with `CC1Oc2ccc(C(=O)N[C@@H]3CN(C4CC4)C[C@@H]3C)cc2NC1=O` (mixture of isomers) [compound 8, (±)-cis-N-(1-cyclopropyl-4-methylpyrrolidin-3-yl)-2-methyl-3-oxo-3,4-dihydro-2H-benzo[b][1,4]oxazine-6-carboxamide], over 50 µM.
On the same count and under the same terms, next, `Cc1cc(C(=O)N[C@H]2CN(C3CC3)C[C@@H]2C)n(Cc2ccccc2)n1` (racemic) [compound 9, (±)-trans-1-benzyl-N-(1-cyclopropyl-4-methylpyrrolidin-3-yl)-3-methyl-1H-pyrazole-5-carboxamide]: over 50 µM; `Cc1cc(C(=O)N[C@@H]2CN(C3CC3)C[C@@H]2C)n(Cc2ccccc2)n1` (racemic) [compound 10, (±)-cis-1-benzyl-N-(1-cyclopropyl-4-methylpyrrolidin-3-yl)-3-methyl-1H-pyrazole-5-carboxamide]: over 50 µM.
As to `CCc1cc(C(=O)N[C@H]2CN(C3CC3)C[C@@H]2C)ns1` (racemic) [compound 11, (±)-trans-N-(1-cyclopropyl-4-methylpyrrolidin-3-yl)-5-ethylisothiazole-3-carboxamide], the half-inhibitory concentration (IC50) was over 50 µM.
On the same count and under the same terms, next, `CCc1cc(C(=O)N[C@@H]2CN(C3CC3)C[C@@H]2C)ns1` (racemic) [compound 12, (±)-cis-N-(1-cyclopropyl-4-methylpyrrolidin-3-yl)-5-ethylisothiazole-3-carboxamide]: 7.1 µM.
On the same count and under the same terms, with `C[C@H]1CN(C2CC2)C[C@@H]1NC(=O)c1ccc2[nH]c(=O)oc2c1` (racemic) [compound 13, (±)-trans-N-(1-cyclopropyl-4-methylpyrrolidin-3-yl)-2-oxo-2,3-dihydrobenzo[d]oxazole-6-carboxamide] the figure was over 50 µM; with `C[C@H]1CN(C2CC2)C[C@H]1NC(=O)c1ccc2[nH]c(=O)oc2c1` (racemic) [compound 14, (±)-cis-N-(1-cyclopropyl-4-methylpyrrolidin-3-yl)-2-oxo-2,3-dihydrobenzo[d]oxazole-6-carboxamide], over 50 µM; with `C[C@@H]1CN(C2CC2)C[C@H]1NC(=O)c1cc(O)nn1C` (racemic) [compound 15, (±)-trans-H-(1-cyclopropyl-4-methylpyrrolidin-3-yl)-3-hydroxy-1-methyl-1H-pyrazole-5-carboxamide], over 50 µM.
Still for that read-out and setting: next, `C[C@H]1CN(C2CC2)C[C@H]1NC(=O)c1cc(O)nn1C` (racemic) [compound 16, (±)-cis-N-(1-cyclopropyl-4-methylpyrrolidin-3-yl)-3-hydroxy-1-methyl-1H-pyrazole-5-carboxamide]: over 50 µM.
For `C[C@H]1CN(C2CC2)C[C@@H]1NC(=O)c1cn(C2CC2)nn1` (racemic) [compound 18, (±)-trans-1-cyclopropyl-N-(1-cyclopropyl-4-methylpyrrolidin-3-yl)-1H-1,2,3-triazole-4-carboxamide], the IC50 is 13.2 µM.
Same read-out and setting: next, `C[C@H]1CN(C2CC2)C[C@H]1NC(=O)c1cn(C2CC2)nn1` (racemic) [compound 19, (±)-cis-1-cyclopropyl-N-(1-cyclopropyl-4-methylpyrrolidin-3-yl)-1H-1,2,3-triazole-4-carboxamide]: 1.4 µM.
Still for that read-out and setting: next, `C[C@H]1CN(C2CC2)C[C@@H]1NC(=O)c1ccc(N2CCCC2)cc1` (racemic) [compound 20, (±)-trans-N-(1-cyclopropyl-4-methylpyrrolidin-3-yl)-4-(pyrrolidin-1-yl)benzamide]: over 50 µM; `C[C@H]1CN(C2CC2)C[C@H]1NC(=O)c1ccc(N2CCCC2)cc1` (racemic) [compound 21, (±)-cis-N-(1-cyclopropyl-4-methylpyrrolidin-3-yl)-4-(pyrrolidin-1-yl)benzamide]: over 50 µM.
Still for that read-out and setting: next, `C[C@H]1CN(C2CC2)C[C@@H]1NC(=O)c1ccc2[nH]c(=O)[nH]c2c1` (racemic) [compound 22, (±)-trans-N-(1-cyclopropyl-4-methylpyrrolidin-3-yl)-2-oxo-2,3-dihydro-1H-benzo[d]imidazole-5-carboxamide]: over 50 µM; `C[C@H]1CN(C2CC2)C[C@H]1NC(=O)c1ccc2[nH]c(=O)[nH]c2c1` (racemic) [compound 23, (±)-cis-N-(1-cyclopropyl-4-methylpyrrolidin-3-yl)-2-oxo-2,3-dihydro-1H-benzo[d]imidazole-5-carboxamide]: over 50 µM.

Staying with this assay, now noted: Table 3; average of n = 1 to n = 50; read-out: SMYD2 Biochem IC50.
Turning to `CC(C)N1C[C@@H](C)[C@H](NC(=O)c2cn(C(C)C)nn2)C1` (racemic) [compound 24, (±)-trans-N-[4-methyl-1-(propan-2-yl)pyrrolidin-3-yl]-1-(propan-2-yl)-1H-1,2,3-triazole-4-carboxamide], the IC50 is over 50 µM.
Still for that read-out and setting: next, `CC(C)N1C[C@H](C)[C@H](NC(=O)c2cn(C(C)C)nn2)C1` (racemic) [compound 25, (±)-cis-N-[4-methyl-1-(propan-2-yl)pyrrolidin-3-yl]-1-(propan-2-yl)-1H-1,2,3-triazole-4-carboxamide]: 6.34 µM; `CC(C)N1C[C@@H](C)[C@H](NC(=O)c2cn(C3CC3)nn2)C1` (racemic) [compound 26, (±)-trans-1-cyclopropyl-N-[4-methyl-1-(propan-2-yl)pyrrolidin-3-yl]-1H-1,2,3-triazole-4-carboxamide]: 19.3 µM.
